In ChEMBL document CHEMBL5113368, “Meroterpenoids produced by fungi: Occurrence, structural diversity, biological activities, and their molecular targets” (Eur J Med Chem, 2021):
One block for each molecule: values may come before it.

Legend:
HL-60 = experiment: Cytotoxicity against human HL-60 cells assessed as cell growth inhibition measured after 24 hrs by MTT assay; format: functional, cell-based; conditions: HL-60, 24 h
THP-1 = experiment: Cytotoxicity against human THP-1 cells assessed as cell growth inhibition measured after 24 hrs by MTT assay; format: functional, cell-based; conditions: THP-1, 24 h
[1] = target: T1, Pancreatic triacylglycerol lipase (Sus scrofa, UniProt P00591); experiment: Inhibition of porcine pancreatic lipase using p-Nitrophenyl butyrate substrate incubated for 15 mins by spectrophotometer analysis
T1 sequence (P00591 whole entry): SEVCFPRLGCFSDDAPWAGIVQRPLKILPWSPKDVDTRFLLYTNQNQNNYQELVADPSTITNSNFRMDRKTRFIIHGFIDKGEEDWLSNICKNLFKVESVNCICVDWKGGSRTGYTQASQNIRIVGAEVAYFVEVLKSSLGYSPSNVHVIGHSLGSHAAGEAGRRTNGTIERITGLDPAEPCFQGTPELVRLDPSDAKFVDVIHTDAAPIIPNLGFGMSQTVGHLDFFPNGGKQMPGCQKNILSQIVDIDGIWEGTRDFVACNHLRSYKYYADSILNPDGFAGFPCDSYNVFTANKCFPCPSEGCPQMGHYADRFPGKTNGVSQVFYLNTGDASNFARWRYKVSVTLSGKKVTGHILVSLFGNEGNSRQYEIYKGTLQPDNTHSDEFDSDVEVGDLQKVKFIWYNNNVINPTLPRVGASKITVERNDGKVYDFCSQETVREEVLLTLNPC

[2] = target: T2, Prostaglandin G/H synthase 2 (Homo sapiens, UniProt P35354); experiment: Inhibition of human recombinant COX-2 pretreated with compound for 10 mins followed by substrate addition for 10 mins by fluorescent inhibitor screening assay
T2 sequence (P35354 whole entry): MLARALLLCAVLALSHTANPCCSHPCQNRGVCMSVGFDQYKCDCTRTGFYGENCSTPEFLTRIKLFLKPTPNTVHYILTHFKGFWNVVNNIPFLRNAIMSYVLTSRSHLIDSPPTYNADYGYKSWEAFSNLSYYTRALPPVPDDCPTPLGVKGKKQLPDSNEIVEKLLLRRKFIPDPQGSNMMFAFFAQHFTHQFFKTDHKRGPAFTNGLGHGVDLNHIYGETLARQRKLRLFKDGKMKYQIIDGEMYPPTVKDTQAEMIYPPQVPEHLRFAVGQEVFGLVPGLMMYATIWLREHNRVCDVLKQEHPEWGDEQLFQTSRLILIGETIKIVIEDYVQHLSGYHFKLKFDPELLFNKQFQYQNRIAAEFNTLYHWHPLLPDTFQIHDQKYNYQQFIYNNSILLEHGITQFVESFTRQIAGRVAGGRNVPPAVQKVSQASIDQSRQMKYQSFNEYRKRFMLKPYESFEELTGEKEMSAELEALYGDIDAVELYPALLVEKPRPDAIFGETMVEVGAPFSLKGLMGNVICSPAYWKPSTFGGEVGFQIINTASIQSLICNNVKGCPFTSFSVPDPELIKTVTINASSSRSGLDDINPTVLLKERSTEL

Acetylcholinesterase [3] = target: T3, Acetylcholinesterase (Homo sapiens, UniProt P22303); experiment: Inhibition of human erythrocyte AChE using acetylthiocholine iodide as substrate incubated for 20 mins by DTNB reagent based spectrophotometric method
T3 sequence (P22303 whole entry): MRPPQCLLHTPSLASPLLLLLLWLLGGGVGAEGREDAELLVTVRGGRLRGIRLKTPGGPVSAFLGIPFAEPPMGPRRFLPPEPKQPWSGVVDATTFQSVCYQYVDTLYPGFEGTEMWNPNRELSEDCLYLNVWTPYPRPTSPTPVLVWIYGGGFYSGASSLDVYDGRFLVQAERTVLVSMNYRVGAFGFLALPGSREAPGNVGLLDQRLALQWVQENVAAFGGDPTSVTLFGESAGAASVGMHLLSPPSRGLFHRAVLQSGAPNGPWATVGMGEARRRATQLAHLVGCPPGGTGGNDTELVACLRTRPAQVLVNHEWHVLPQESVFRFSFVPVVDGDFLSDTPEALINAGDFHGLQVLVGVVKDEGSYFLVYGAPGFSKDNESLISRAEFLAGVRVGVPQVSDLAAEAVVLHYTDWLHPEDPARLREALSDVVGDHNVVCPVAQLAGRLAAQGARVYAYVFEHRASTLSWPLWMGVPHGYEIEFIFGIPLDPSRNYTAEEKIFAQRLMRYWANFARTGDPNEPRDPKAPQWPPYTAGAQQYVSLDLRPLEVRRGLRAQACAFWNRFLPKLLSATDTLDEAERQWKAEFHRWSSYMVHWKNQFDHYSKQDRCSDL

[4] = target: T2, Prostaglandin G/H synthase 2; experiment: Inhibition of COX-2 (unknown origin) by fluorescent inhibitor screening assay
[5] = target: T4, Tyrosine-protein kinase JAK3 (Homo sapiens, UniProt P52333); experiment: Inhibition of JAK3 (unknown origin) by FRET-based Z'-Lyte assay
T4 sequence (P52333 whole entry): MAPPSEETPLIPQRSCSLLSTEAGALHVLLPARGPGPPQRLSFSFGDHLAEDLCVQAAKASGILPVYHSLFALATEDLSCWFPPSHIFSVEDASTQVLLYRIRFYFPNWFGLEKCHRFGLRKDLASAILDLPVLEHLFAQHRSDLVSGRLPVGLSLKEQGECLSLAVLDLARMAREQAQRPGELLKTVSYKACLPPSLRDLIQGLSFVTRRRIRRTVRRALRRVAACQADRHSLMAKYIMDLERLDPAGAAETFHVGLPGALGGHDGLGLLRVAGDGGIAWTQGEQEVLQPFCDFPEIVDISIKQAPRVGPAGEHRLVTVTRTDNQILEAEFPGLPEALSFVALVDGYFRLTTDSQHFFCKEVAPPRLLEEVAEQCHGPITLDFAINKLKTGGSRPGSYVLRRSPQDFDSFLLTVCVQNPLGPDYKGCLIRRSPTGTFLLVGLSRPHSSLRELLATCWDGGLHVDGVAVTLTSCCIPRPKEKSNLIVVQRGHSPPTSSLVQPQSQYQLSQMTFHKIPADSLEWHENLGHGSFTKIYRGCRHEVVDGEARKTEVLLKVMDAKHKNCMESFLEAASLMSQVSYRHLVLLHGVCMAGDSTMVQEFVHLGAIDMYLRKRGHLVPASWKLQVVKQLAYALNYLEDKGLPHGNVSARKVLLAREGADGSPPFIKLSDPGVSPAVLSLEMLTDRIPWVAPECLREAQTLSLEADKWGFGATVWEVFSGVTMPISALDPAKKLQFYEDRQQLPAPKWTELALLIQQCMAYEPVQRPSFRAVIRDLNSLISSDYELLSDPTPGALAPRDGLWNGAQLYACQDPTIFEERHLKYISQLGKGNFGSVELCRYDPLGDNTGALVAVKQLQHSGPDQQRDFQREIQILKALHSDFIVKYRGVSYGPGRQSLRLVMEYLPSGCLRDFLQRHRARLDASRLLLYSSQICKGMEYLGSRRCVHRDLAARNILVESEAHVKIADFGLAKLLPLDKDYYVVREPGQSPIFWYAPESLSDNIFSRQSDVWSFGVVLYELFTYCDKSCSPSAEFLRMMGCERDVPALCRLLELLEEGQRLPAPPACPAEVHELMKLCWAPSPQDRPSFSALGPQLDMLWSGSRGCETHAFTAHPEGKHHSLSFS

[6] = target: Epithelial discoidin domain-containing receptor 1 (Homo sapiens, UniProt Q08345); experiment: Inhibition of DDR1 (unknown origin) by lanthascreen eu kinase activity assay
Chain of Epithelial discoidin domain-containing receptor 1 (Q08345 whole entry, the tested form may be a part): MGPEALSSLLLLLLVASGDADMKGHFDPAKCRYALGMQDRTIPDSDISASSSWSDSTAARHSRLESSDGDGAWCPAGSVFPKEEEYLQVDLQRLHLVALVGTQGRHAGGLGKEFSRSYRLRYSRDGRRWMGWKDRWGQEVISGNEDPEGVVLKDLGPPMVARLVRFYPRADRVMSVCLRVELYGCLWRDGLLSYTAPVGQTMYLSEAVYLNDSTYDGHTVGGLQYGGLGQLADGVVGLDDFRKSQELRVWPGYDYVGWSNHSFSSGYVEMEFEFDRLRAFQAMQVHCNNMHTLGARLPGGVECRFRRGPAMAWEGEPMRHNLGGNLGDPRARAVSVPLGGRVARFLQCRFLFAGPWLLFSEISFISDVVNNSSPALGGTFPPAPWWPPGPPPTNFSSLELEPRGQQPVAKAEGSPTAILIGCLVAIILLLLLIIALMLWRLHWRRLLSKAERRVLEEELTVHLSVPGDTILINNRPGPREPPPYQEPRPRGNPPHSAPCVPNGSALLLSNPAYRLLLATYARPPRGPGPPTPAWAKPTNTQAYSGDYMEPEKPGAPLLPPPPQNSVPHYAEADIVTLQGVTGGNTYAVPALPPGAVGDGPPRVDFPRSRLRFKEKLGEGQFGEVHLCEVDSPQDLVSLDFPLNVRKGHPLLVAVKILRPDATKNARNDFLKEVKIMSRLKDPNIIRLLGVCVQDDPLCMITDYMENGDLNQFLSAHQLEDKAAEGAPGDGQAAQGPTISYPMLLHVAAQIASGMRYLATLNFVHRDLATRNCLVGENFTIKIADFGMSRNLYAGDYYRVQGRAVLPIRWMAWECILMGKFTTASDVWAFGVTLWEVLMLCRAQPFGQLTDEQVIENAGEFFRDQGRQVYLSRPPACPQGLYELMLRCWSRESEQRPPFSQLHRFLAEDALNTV

[7] = target: T5, Tyrosine-protein phosphatase non-receptor type 1 (Homo sapiens, UniProt P18031); experiment: Inhibition of PTP1B (unknown origin) using pNPP as substrate by spectrophotometer analysis
T5 sequence (P18031 whole entry): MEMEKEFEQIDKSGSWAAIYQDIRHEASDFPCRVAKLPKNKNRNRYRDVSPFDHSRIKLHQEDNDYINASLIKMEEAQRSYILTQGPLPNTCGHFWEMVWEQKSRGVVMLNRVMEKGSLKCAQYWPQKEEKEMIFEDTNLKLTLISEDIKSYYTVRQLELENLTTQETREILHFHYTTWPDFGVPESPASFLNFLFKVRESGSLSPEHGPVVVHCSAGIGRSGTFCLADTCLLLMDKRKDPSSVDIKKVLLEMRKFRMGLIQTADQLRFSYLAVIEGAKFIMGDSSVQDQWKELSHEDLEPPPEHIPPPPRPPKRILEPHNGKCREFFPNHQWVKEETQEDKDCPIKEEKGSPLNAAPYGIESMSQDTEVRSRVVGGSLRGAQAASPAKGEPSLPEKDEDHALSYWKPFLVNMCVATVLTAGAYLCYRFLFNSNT

[8] = Inhibition of Saccharomyces cerevisiae alpha-glucosidase using p-nitrophenyl-alpha-D -glucopyranoside as substrate pre-incubated for 10 mins followed by substrate addition measured after 15 mins by absorbance based analysis
K562 = experiment: Cytotoxicity against human K562 cells assessed as cell growth inhibition by CCK-8 method; format: functional, cell-based
RAW264.7 = experiment: Anti-inflammatory activity in mouse RAW264.7 cells assessed as inhibition of NO production; format: functional, cell-based
Acetylcholinesterase [9] = target: T3, Acetylcholinesterase; experiment: Inhibition of AChE (unknown origin)

SMILES: COC(=O)CC1=C(C)[C@@H]2C[C@@]3(C)C(=O)O[C@H]4O[C@@H](C)C(=O)[C@](C(=O)OC)([C@H]43)[C@@]2(C)CC=C1C(C)(C)OC
IC50 (HL-60): 7.9 µM
IC50 (THP-1): 11.3 µM

SMILES: COC/C(C=O)=C\CCC1=CC(c2cc(O)ccc2O)OC1=O (stereo not drawn)
IC50 (Acetylcholinesterase [3]): 8.52 µM

SMILES: C=C(C)C1CCC2(C(=O)OCC)CC13Oc1c(C/C=C(\CO)CC/C=C(\C)CCC=C(C)C)cc(O)cc1-c1c(O)ccc(c13)O2 (racemic)
IC50 (K562): 7.68 µM

SMILES: CC1(C)CCC[C@@]23C[C@@](CC(=O)c4cc(O)ccc4O)(CC[C@H]12)C(=O)O3
IC50 (RAW264.7): 6.1 µM

SMILES: COc1ccc(-c2cc3c(c(=O)o2)C[C@]2(O)[C@@]4(C)CC[C@@H](O)C(C)(C)[C@]4(O)CC[C@@]2(C)O3)cc1
IC50 (Acetylcholinesterase [9]): 0.64 µM

SMILES: CC(=O)O[C@@H]1C[C@@]2(C)Oc3cc(C)oc(=O)c3C[C@@H]2[C@@]2(C)C=CC(=O)C(C)(C)[C@H]12
IC50 (Acetylcholinesterase [9]): 13.6 µM

SMILES: CO[C@H]1OC(=O)[C@@]2(CC(=O)c3cc(O)ccc3O)C[C@@H]3[C@@H](CCC4=C[C@@H](c5cc(O)ccc5O)OC4=O)C(C=O)=CO[C@@H]3[C@@]12C (racemic)
IC50 [5]: < 10 µM

Second part, the molecule after the results:

IC50 [1]: 27.3 µM
SMILES: CC(C)=CCC/C(C)=C/CCC1=C[C@]2(OC1=O)c1cc(O)ccc1OC(=O)[C@@]2(CC/C=C(\C)CCC=C(C)C)CC(=O)c1cc(O)ccc1O (racemic)

IC50 [2]: 1.29 µM
SMILES: CC(C)=CCCC1=C[C@]2(OC1=O)c1cc(O)ccc1OC(=O)[C@@]2(CC/C=C(\C)CCC=C(C)C)CC(=O)c1cc(O)ccc1O (racemic)

IC50 [4]: 4.84 µM
SMILES: C/C(=C\CC/C(C)=C/C/C=C(/CC(=O)c1cc(O)ccc1O)C(=O)O)CO

IC50 [5]: < 10 µM
IC50 [6]: 8.2 µM
SMILES: CO[C@H]1OC(=O)[C@@]2(CC(=O)c3cc(O)ccc3O)C[C@@H]3[C@@H](C/C=C(\CC(=O)c4cc(O)ccc4O)C(=O)O)C(C=O)=CO[C@@H]3[C@@]12C (racemic)

IC50 [7]: 63.1 µM
SMILES: CO[C@@H]1c2c3c(cc(O)c2C(=O)O[C@@H]1C)O[C@@]1(C)[C@@H](O)C[C@H]2C(C)(C)C(=O)C=C[C@]2(C)[C@@H]1C3

IC50 [8]: 39.2 µM
SMILES: C/C(=C\Cc1c(O)cc2c(c1O)CN(CCCC[C@@H](C(=O)O)N1Cc3c(cc(O)c(C/C=C(\C)CC/C=C(\C)C(=O)O)c3O)C1=O)C2=O)CC/C=C(\C)C(=O)O

IC50 [8]: 36.2 µM
SMILES: COC(=O)[C@H](CCCCN1Cc2c(cc(O)c(C/C=C(\C)CC/C=C(\C)C(=O)O)c2O)C1=O)N1Cc2c(cc(O)c(C/C=C(\C)CC/C=C(\C)C(=O)O)c2O)C1=O

IC50 [4]: 1.38 µM
SMILES: C/C(=C\CC/C(C)=C/CCCC1(O)Oc2ccc(O)cc2C1=O)CO (stereo not drawn)

IC50 [4]: 3.47 µM
SMILES: C/C(=C/CC/C(C)=C/CC/C(=C/C(=O)c1cc(O)ccc1O)C(=O)O)CO
